We go through 23 molecules from US8338565B2, “Macrocyclic compounds for inhibition of tumor necrosis factor alpha” (Ensemble Therapeutics Corporation, priority 2008, dated 2012).

Molecules are shown by their SMILES. Numbered stars: 1 amine (or outer) side, 2 acyl side, 3 side chain; on linkers, the order of the positions; unused ones are H or OH. Bridge positions count the residues as written; N and C are the ends. Square brackets hold non-standard residues; d marks the D form. Peptide text beside a SMILES is read from it. * marks the point of attachment. Phe(4-CF3) = N[C@@H](Cc1ccc(C(F)(F)F)cc1)C(=O)O; dPhe(3,4-F2) = N[C@H](Cc1ccc(F)c(F)c1)C(=O)O; dPhe(3-CN) = N#Cc1cccc(C[C@@H](N)C(=O)O)c1; dPhe(3-OMe) = COc1cccc(C[C@@H](N)C(=O)O)c1; dPhe(4-CN) = N#Cc1ccc(C[C@@H](N)C(=O)O)cc1; Bip = N[C@@H](Cc1ccc(-c2ccccc2)cc1)C(=O)O; dPhe(2-CN) = N#Cc1ccccc1C[C@@H](N)C(=O)O; dPhe(3-Cl) = N[C@H](Cc1cccc(Cl)c1)C(=O)O; Phe(4-NH2) = Nc1ccc(C[C@H](N)C(=O)O)cc1; dAla(2-furyl) = N[C@H](Cc1ccco1)C(=O)O; dPhe(2-Cl) = N[C@H](Cc1ccccc1Cl)C(=O)O; dPhe(4-F) = N[C@H](Cc1ccc(F)cc1)C(=O)O; d1Nal = N[C@H](Cc1cccc2ccccc12)C(=O)O; d2Nal = N[C@H](Cc1ccc2ccccc2c1)C(=O)O; d(hhPhe) = N[C@H](CCCc1ccccc1)C(=O)O; d3Pal = N[C@H](Cc1cccnc1)C(=O)O; d4Pal = N[C@H](Cc1ccncc1)C(=O)O; d3Thi = N[C@H](Cc1ccsc1)C(=O)O; dCha = N[C@H](CC1CCCCC1)C(=O)O; Suc = O=C(CCC(=O)[*:2])[*:1]; Bn = c1ccc(C*)cc1 Bounds are passed on as bounds.

T1 sequence (P01375 77-233 limits assumed, species assumed): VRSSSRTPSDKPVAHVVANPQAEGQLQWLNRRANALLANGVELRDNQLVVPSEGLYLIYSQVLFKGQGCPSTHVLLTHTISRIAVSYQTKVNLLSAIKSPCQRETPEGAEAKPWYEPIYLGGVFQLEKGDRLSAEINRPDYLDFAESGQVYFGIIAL

This test concerns the target T1, TNFα / TNFα receptor (TNFα R1/Fc) (Homo sapiens, UniProt P01375).
T1 construct: purchased R&D Systems
The test is described as follows: Inhibition of binding of TNFα to the TNFα receptor (plate ELISA competition). Conditions: Table 2; read-out: Activity (IC50, inhibition of TNFα binding to TNFα R1/Fc). In outline: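 Plates were coated with TNFα at 15 nM. Test compound and 8.33 nM receptor-Fc (PBST, 2% DMSO) were first mixed in solution for 30 min at room temperature, then transferred to the plates for another 30 min. Competition was read by absorbance at 450 nm after HRP anti-human IgG Fc detection with TMB.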
(In general: ELISA stands for enzyme-linked immunosorbent assay.)
For the molecule `O=C1CCC(=O)N[C@H](Cc2ccsc2)C(=O)N[C@@H](Cc2ccc(-c3ccccc3)cc2)C(=O)N[C@H](Cc2ccccc2)C(=O)N[C@H](C(=O)O)Cc2ccc(cc2)N1` [Compound 122] ([d3Thi][Bip][dF][Phe(4-NH2)]-OH; linker N-4 via Suc), the IC50 lay within 30 to 100 µM.

Take `O=C1CCC(=O)N[C@H](Cc2ccco2)C(=O)N[C@@H](Cc2ccc(-c3ccccc3)cc2)C(=O)N[C@H](Cc2ccccc2)C(=O)N[C@H](C(=O)O)Cc2ccc(cc2)N1` [Compound 123] ([dAla(2-furyl)][Bip][dF][Phe(4-NH2)]-OH; linker N-4 via Suc): the IC50 lay in the range of 30 to 100 µM.

For the molecule `O=C1CCC(=O)N[C@H](CC2CCCCC2)C(=O)N[C@@H](Cc2ccc(-c3ccccc3)cc2)C(=O)N[C@H](Cc2ccccc2)C(=O)N[C@H](C(=O)O)Cc2ccc(cc2)N1` [Compound 124] ([dCha][Bip][dF][Phe(4-NH2)]-OH; linker N-4 via Suc), the IC50 is greater than 100 µM.

As to `O=C1CCC(=O)N[C@H](Cc2c[nH]c3ccccc23)C(=O)N[C@@H](Cc2ccc(-c3ccccc3)cc2)C(=O)N[C@H](Cc2ccccc2)C(=O)N[C@H](C(=O)O)Cc2ccc(cc2)N1` [Compound 125] ([dW][Bip][dF][Phe(4-NH2)]-OH; linker N-4 via Suc), the IC50 was greater than 100 µM.

For `O=C1CCC(=O)N[C@H](Cc2cccnc2)C(=O)N[C@@H](Cc2ccc(-c3ccccc3)cc2)C(=O)N[C@H](Cc2ccccc2)C(=O)N[C@H](C(=O)O)Cc2ccc(cc2)N1` [Compound 126] ([d3Pal][Bip][dF][Phe(4-NH2)]-OH; linker N-4 via Suc), the IC50 is greater than 100 µM.

`O=C1CCC(=O)N[C@H](Cc2ccncc2)C(=O)N[C@@H](Cc2ccc(-c3ccccc3)cc2)C(=O)N[C@H](Cc2ccccc2)C(=O)N[C@H](C(=O)O)Cc2ccc(cc2)N1` [Compound 127] ([d4Pal][Bip][dF][Phe(4-NH2)]-OH; linker N-4 via Suc): the IC50 was greater than 100 µM.

In the case of `O=C1CCC(=O)N[C@H](Cc2ccccc2)C(=O)N[C@@H](Cc2ccc(-c3ccccc3)cc2)C(=O)N[C@H](Cc2ccccc2)C(=O)N[C@H](C(=O)O)Cc2ccc(cc2)N1` [Compound 128] ([dF][Bip][dF][Phe(4-NH2)]-OH; linker N-4 via Suc), the IC50 lay within 30 to 100 µM.

Turning to `N#Cc1ccccc1C[C@H]1NC(=O)CCC(=O)Nc2ccc(cc2)C[C@@H](C(=O)O)NC(=O)[C@@H](Cc2ccccc2)NC(=O)[C@H](Cc2ccc(C(F)(F)F)cc2)NC1=O` [Compound 129] ([dPhe(2-CN)][Phe(4-CF3)][dF][Phe(4-NH2)]-OH; linker N-4 via Suc), the IC50 fell in the range of 30 to 100 µM.

`N#Cc1cccc(C[C@H]2NC(=O)CCC(=O)Nc3ccc(cc3)C[C@@H](C(=O)O)NC(=O)[C@@H](Cc3ccccc3)NC(=O)[C@H](Cc3ccc(C(F)(F)F)cc3)NC2=O)c1` [Compound 130] ([dPhe(3-CN)][Phe(4-CF3)][dF][Phe(4-NH2)]-OH; linker N-4 via Suc): the IC50 fell in the range of 10 to 30 µM.

In the case of `N#Cc1ccc(C[C@H]2NC(=O)CCC(=O)Nc3ccc(cc3)C[C@@H](C(=O)O)NC(=O)[C@@H](Cc3ccccc3)NC(=O)[C@H](Cc3ccc(C(F)(F)F)cc3)NC2=O)cc1` [Compound 131] ([dPhe(4-CN)][Phe(4-CF3)][dF][Phe(4-NH2)]-OH; linker N-4 via Suc), the IC50 was 30 to 100 µM.

As for `O=C1CCC(=O)N[C@H](Cc2ccccc2Cl)C(=O)N[C@@H](Cc2ccc(C(F)(F)F)cc2)C(=O)N[C@H](Cc2ccccc2)C(=O)N[C@H](C(=O)O)Cc2ccc(cc2)N1` [Compound 132] ([dPhe(2-Cl)][Phe(4-CF3)][dF][Phe(4-NH2)]-OH; linker N-4 via Suc), the IC50 lay within 30 to 100 µM.

For `O=C1CCC(=O)N[C@H](Cc2cccc(Cl)c2)C(=O)N[C@@H](Cc2ccc(C(F)(F)F)cc2)C(=O)N[C@H](Cc2ccccc2)C(=O)N[C@H](C(=O)O)Cc2ccc(cc2)N1` [Compound 133] ([dPhe(3-Cl)][Phe(4-CF3)][dF][Phe(4-NH2)]-OH; linker N-4 via Suc), the IC50 was 30 to 100 µM.

Regarding `O=C1CCC(=O)N[C@H](Cc2ccc(F)cc2)C(=O)N[C@@H](Cc2ccc(C(F)(F)F)cc2)C(=O)N[C@H](Cc2ccccc2)C(=O)N[C@H](C(=O)O)Cc2ccc(cc2)N1` [Compound 134] ([dPhe(4-F)][Phe(4-CF3)][dF][Phe(4-NH2)]-OH; linker N-4 via Suc), the IC50 is greater than 100 µM.

In the case of `O=C1CCC(=O)N[C@H](Cc2ccc(F)c(F)c2)C(=O)N[C@@H](Cc2ccc(C(F)(F)F)cc2)C(=O)N[C@H](Cc2ccccc2)C(=O)N[C@H](C(=O)O)Cc2ccc(cc2)N1` [Compound 135] ([dPhe(3,4-F2)][Phe(4-CF3)][dF][Phe(4-NH2)]-OH; linker N-4 via Suc), the IC50 is 30 to 100 µM.

Turning to `O=C1CCC(=O)N[C@H](CCCc2ccccc2)C(=O)N[C@@H](Cc2ccc(C(F)(F)F)cc2)C(=O)N[C@H](Cc2ccccc2)C(=O)N[C@H](C(=O)O)Cc2ccc(cc2)N1` [Compound 136] ([d(hhPhe)][Phe(4-CF3)][dF][Phe(4-NH2)]-OH; linker N-4 via Suc), the IC50 lay within 30 to 100 µM.

On to `O=C1CCC(=O)N[C@H](COCc2ccccc2)C(=O)N[C@@H](Cc2ccc(C(F)(F)F)cc2)C(=O)N[C@H](Cc2ccccc2)C(=O)N[C@H](C(=O)O)Cc2ccc(cc2)N1` [Compound 137] ([dS](Bn)[Phe(4-CF3)][dF][Phe(4-NH2)]-OH; linker N-4 via Suc), for which the IC50 lay in the range of 30 to 100 µM.

For the molecule `COc1cccc(C[C@H]2NC(=O)CCC(=O)Nc3ccc(cc3)C[C@@H](C(=O)O)NC(=O)[C@@H](Cc3ccccc3)NC(=O)[C@H](Cc3ccc(C(F)(F)F)cc3)NC2=O)c1` [Compound 138] ([dPhe(3-OMe)][Phe(4-CF3)][dF][Phe(4-NH2)]-OH; linker N-4 via Suc), the IC50 was greater than 100 µM.

Regarding `N=C(N)NCCC[C@H]1NC(=O)CCC(=O)Nc2ccc(cc2)C[C@@H](C(=O)O)NC(=O)[C@@H](Cc2ccccc2)NC(=O)[C@H](Cc2ccc(C(F)(F)F)cc2)NC1=O` [Compound 141] ([dR][Phe(4-CF3)][dF][Phe(4-NH2)]-OH; linker N-4 via Suc), the IC50 is greater than 100 µM.

Consider `O=C1CCC(=O)N[C@H](Cc2cccc3ccccc23)C(=O)N[C@@H](Cc2ccc(C(F)(F)F)cc2)C(=O)N[C@H](Cc2ccccc2)C(=O)N[C@H](C(=O)O)Cc2ccc(cc2)N1` [Compound 142] ([d1Nal][Phe(4-CF3)][dF][Phe(4-NH2)]-OH; linker N-4 via Suc), for which the IC50 lay within 30 to 100 µM.

On to `O=C1CCC(=O)N[C@H](Cc2ccc3ccccc3c2)C(=O)N[C@@H](Cc2ccc(C(F)(F)F)cc2)C(=O)N[C@H](Cc2ccccc2)C(=O)N[C@H](C(=O)O)Cc2ccc(cc2)N1` [Compound 143] ([d2Nal][Phe(4-CF3)][dF][Phe(4-NH2)]-OH; linker N-4 via Suc), for which the IC50 is greater than 100 µM.

Take `O=C1COc2ccc(cc2)C[C@@H](C(=O)O)NC(=O)[C@@H](CCc2ccccc2)NC(=O)[C@H](Cc2ccc(-c3ccccc3)cc2)NC(=O)[C@@H](CCc2ccccc2)N1` [Compound 144]: the IC50 lay within 10 to 30 µM.

Consider `O=C1COc2ccc(cc2)C[C@@H](C(=O)O)NC(=O)[C@@H](CCc2ccccc2)NC(=O)[C@H](Cc2ccc(-c3ccccc3)cc2)NC(=O)[C@@H](Cc2cccs2)N1` [Compound 145], for which the IC50 lay within 10 to 30 µM.

In the case of `O=C1COc2ccc(cc2)C[C@@H](C(=O)O)NC(=O)[C@@H](CCc2ccccc2)NC(=O)[C@H](Cc2ccc(C(F)(F)F)cc2)NC(=O)[C@@H](Cc2ccc(C(F)(F)F)cc2)N1` [Compound 146], the IC50 lay in the range of 10 to 30 µM.
